Reference: ChEMBL document CHEMBL3817743, “Potent and Selective Human Neuronal Nitric Oxide Synthase Inhibition by Optimization of the 2-Aminopyridine-Based Scaffold with a Pyridine Linker” (J Med Chem, 2016)

Columns and labels:
[1] = biological target: T1, Nitric oxide synthase, inducible (Mus musculus, UniProt P29477); experiment: Inhibition of recombinant mouse macrophage iNOS expressed in Escherichia coli using L-arginine as substrate assessed as reduction in NO production measured for 6 mins by hemoglobin capture assay
T1 sequence (P29477 whole entry): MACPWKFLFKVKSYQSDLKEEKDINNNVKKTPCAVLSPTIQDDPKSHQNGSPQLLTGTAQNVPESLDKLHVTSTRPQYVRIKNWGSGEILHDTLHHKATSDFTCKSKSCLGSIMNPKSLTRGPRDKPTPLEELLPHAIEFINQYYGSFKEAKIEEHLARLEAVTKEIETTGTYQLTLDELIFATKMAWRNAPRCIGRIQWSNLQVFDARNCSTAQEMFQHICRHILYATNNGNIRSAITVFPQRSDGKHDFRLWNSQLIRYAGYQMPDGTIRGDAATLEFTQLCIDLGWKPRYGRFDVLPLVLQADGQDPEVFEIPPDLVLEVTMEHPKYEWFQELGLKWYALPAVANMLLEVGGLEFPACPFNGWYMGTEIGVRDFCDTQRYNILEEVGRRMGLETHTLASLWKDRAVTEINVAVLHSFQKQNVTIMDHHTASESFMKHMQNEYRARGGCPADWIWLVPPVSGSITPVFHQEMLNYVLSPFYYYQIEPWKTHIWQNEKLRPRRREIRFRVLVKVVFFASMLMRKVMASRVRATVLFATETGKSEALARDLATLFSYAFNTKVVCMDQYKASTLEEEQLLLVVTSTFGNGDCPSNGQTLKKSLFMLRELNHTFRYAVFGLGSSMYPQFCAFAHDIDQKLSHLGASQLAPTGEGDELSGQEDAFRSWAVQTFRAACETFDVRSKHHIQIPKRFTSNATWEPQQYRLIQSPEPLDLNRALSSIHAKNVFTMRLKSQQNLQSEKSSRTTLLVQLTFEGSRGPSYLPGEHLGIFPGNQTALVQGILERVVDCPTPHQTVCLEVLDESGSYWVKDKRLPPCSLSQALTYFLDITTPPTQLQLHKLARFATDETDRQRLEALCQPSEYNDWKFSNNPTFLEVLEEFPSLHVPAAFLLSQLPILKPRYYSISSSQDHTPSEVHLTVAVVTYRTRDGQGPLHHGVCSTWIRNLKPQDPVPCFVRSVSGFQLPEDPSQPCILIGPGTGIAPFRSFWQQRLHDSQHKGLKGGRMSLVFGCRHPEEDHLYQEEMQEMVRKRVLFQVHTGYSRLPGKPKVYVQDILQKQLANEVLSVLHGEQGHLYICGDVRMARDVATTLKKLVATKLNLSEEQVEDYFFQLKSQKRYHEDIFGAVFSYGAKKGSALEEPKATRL

Nitric oxide synthase 1 = Nitric oxide synthase 1 (Rattus norvegicus, UniProt P29476); experiment: Inhibition of rat recombinant nNOS expressed in Escherichia coli using L-arginine as substrate assessed as reduction in NO production measured for 6 mins in presence of tetrahydrobiopterin by hemoglobin capture assay
Cytochrome P450 2D6 = Cytochrome P450 2D6 (Homo sapiens, UniProt P10635); experiment: Inhibition of CYP2D6 in human liver microsomes using bufuralol as substrate at 10 uM preincubated for 5 mins followed by NADPH addition measured after 10 mins by LC-MS/MS analysis relative to control; assay type: ADME
[2] = Drug metabolism in human liver microsomes at 1 uM incubated for 60 mins by LC-MS/MS analysis; assay type: ADME; conditions: read-out: Drug metabolism
Cytochrome P450 1A2 = biological target: T2, Cytochrome P450 1A2 (Homo sapiens, UniProt P05177); experiment: Inhibition of CYP1A2 in human liver microsomes using phenacetin as substrate at 10 uM preincubated for 5 mins followed by NADPH addition measured after 10 mins by LC-MS/MS analysis relative to control; assay type: ADME
T2 sequence (P05177 whole entry): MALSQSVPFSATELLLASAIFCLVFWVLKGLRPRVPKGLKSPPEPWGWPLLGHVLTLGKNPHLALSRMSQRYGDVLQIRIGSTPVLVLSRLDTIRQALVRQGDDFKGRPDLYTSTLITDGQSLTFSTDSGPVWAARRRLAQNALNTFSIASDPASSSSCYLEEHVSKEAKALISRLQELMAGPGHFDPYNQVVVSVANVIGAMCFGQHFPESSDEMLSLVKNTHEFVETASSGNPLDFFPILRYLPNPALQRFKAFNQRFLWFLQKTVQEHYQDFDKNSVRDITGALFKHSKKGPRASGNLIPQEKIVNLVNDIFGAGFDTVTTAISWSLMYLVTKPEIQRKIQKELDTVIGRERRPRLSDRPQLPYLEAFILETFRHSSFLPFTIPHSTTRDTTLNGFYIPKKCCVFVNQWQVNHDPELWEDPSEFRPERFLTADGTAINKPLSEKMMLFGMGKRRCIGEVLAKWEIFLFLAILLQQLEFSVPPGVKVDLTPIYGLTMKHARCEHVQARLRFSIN

Cytochrome P450 2C9 = Cytochrome P450 2C9 (Homo sapiens, UniProt P11712); experiment: Inhibition of CYP2C9 in human liver microsomes using diclofenac as substrate at 10 uM preincubated for 5 mins followed by NADPH addition measured after 10 mins by LC-MS/MS analysis relative to control; assay type: ADME
[3] = Permeability from apical to basolateral side in human Caco2 cells at 10 uM after 2 hrs by LC-MS/MS analysis; assay type: ADME, cell-based; conditions: caco-2, 2 h
[4] = Drug metabolism in human liver microsomes at 1 uM preincubated for 5 mins followed by NADPH addition measured after […] mins by LC-MS/MS analysis; assay type: ADME; conditions: read-out: Drug metabolism

Chain of Nitric oxide synthase 1 (P29476 whole entry): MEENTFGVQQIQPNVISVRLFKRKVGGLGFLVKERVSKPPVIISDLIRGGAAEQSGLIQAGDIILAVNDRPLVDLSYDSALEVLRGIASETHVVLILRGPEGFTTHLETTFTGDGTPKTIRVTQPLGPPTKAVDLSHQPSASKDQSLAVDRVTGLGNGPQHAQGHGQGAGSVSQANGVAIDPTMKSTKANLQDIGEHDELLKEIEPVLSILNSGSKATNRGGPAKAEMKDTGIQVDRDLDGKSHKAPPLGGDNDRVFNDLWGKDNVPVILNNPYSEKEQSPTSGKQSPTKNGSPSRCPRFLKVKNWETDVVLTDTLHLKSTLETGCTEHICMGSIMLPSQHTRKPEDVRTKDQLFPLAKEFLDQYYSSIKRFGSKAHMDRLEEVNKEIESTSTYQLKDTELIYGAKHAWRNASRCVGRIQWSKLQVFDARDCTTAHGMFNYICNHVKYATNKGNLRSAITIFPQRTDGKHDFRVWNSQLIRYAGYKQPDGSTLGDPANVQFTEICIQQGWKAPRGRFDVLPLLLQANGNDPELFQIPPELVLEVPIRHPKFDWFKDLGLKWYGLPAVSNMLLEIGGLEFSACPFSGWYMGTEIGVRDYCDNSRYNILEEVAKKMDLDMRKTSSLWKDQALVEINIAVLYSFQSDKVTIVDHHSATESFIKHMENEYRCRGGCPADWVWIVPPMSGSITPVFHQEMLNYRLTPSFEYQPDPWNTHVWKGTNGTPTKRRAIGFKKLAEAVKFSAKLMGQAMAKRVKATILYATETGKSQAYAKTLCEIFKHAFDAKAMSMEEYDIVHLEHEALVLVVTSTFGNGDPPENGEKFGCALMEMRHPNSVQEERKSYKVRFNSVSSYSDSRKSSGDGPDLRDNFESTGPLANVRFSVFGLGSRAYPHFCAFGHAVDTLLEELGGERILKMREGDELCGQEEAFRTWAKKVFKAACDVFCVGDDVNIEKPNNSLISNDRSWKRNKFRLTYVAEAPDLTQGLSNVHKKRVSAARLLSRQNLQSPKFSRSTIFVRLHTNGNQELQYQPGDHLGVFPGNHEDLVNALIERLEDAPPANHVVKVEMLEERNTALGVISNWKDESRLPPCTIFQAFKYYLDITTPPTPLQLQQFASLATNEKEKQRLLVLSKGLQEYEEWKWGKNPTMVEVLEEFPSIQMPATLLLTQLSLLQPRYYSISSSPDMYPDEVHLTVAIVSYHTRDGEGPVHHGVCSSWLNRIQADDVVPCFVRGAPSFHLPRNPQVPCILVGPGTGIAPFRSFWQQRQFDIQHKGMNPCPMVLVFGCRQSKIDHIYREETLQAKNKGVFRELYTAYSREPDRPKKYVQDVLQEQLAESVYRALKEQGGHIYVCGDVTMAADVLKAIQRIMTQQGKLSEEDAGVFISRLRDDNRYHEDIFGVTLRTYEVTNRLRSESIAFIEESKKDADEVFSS
Chain of Cytochrome P450 2C9 (P11712 whole entry): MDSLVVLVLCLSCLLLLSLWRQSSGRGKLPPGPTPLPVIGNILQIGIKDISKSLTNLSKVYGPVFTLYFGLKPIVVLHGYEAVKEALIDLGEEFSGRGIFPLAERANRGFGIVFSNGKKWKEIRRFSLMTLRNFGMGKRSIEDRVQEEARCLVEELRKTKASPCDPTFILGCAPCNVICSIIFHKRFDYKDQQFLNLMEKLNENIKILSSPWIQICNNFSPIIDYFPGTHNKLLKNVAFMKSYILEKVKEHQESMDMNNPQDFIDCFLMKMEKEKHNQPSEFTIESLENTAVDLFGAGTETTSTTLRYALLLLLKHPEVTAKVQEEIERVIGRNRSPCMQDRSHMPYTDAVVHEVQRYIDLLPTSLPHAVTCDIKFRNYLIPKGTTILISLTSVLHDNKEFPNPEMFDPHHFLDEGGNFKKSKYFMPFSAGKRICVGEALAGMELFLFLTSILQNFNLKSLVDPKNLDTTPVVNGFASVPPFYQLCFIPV
Chain of Cytochrome P450 2D6 (P10635 whole entry): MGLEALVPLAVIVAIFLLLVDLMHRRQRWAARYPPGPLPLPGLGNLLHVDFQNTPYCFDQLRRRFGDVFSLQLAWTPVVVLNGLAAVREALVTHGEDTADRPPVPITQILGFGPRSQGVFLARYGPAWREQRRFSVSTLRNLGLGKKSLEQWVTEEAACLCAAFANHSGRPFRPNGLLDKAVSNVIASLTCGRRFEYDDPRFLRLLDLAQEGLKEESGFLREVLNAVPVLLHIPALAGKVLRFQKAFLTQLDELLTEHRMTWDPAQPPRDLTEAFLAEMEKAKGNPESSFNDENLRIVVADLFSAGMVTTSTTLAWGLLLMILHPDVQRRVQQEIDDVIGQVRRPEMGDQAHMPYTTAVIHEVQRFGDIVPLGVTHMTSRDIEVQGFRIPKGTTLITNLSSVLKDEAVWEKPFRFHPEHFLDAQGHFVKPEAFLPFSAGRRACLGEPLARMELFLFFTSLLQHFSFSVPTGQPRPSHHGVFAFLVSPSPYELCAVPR

Row | Structure (SMILES) | Ki [1] [µM] | Ki (Nitric oxide synthase 1) [µM] | inhibition (INH) (Cytochrome P450 2D6) [%] | metabolised at 1 h, 1 µM [2] [%] | inhibition (INH) (Cytochrome P450 1A2) [%] | inhibition (INH) (Cytochrome P450 2C9) [%] | permeability [3] | metabolised at […], 1 µM [4] [%]
1 | Cc1cc(N)nc(CCc2cncc(N3CCCCC3)c2)c1 | 5.64 | 1.87 | – | – | – | – | – | –
2 | CNCCCc1cncc(CCc2cc(C)cc(N)n2)c1 | – | – | 6 | 23 | 9 | 0 | impermeable | 23
3 | Cc1cc(N)nc(CCc2cccnc2)c1 | 2.78 | 0.706 | – | – | – | – | – | –
